Reference: patent publication US20120004228A1, “Bis Aromatic Compounds for Use as LTC4 Synthase Inhibitors” (BIOLIPOX AB, priority 2009, published 2012)

Target: T1, Recombinant human LTC4 synthase (Homo sapiens, UniProt Q16873)
T1 construct: made in house; host or cells: Pichia pastoris ('Piccia pastoralis' [sic])
T1 sequence (Q16873 1-150): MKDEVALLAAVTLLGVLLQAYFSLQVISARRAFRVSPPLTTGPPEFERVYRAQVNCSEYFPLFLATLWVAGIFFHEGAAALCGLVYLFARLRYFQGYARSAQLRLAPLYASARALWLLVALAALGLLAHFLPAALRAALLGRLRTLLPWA
Experiment: In vitro LTC4 synthase assay (LTA4 to LTC4, HTRF detection)
Format: biochemical
Experimental: In the assay, LTC4 synthase catalyses the reaction where the substrate LTA4 is converted to LTC4. Recombinant human LTC4 synthase is expressed in Piccia pastoralis and the purified enzyme is dissolved in 25 mM tris-buffer pH 7.8 supplemented with 0.1 mM glutathione (GSH) and stored at −80° C. The assay is performed in phosphate buffered saline (PBS) pH 7.4 and 5 mM GSH in 384-well plates.
The following is added chronologically to each well:
1. 48 μL LTC4 synthase in PBS with 5 mM GSH. The total protein concentration in this solution is 0.5 μg/mL. 2. 1 μL inhibitor in DMSO (final concentration 10 μM). 3. Incubation of the plate at room temperature for 10 min. 4. 1 μL LTA4 (final concentration 2.5 μM). 5. Incubation of the plate at room temperature for 5 min. 6. 10 μL of the incubation mixture is analysed using homogenous time resolved fluorescent (HTRF) detection.

In order of rising IC50:
1. CN(c1ccc(Cl)cc1)c1ccc(C(=O)c2cc(C(=O)O)cc(N(CCCCO)c3ccccc3)c2)nc1 [9:45, 3-{5-[(4-Chlorophenyl)(methyl)amino]picolinoyl}-5-[(4-hydroxybutyl)(phenyl)-amino]benzoic acid]  25 nM
2. CCN(c1ccccc1)c1cc(C(=O)O)cc(C(=O)c2ccc(N(C)c3ccc(Cl)cc3)cc2)c1 [10:19, 3-{4-[(4-Chlorophenyl)(methyl)amino]benzoyl}-5-[ethyl(phenyl)amino]benzoic acid]  33 nM
3. CN(c1ccc(Cl)cc1)c1ccc(C(=O)c2cc(C(=O)O)cc(N(C)c3ccc(Cl)cc3Cl)c2)cc1 [10:13, 3-{4-[(4-Chlorophenyl)(methyl)amino]benzoyl}-5-[(2,4-dichlorophenyl)-(methyl)amino]benzoic acid]  40 nM
4. CN(c1ccc(Cl)cc1)c1ccc(C(=O)c2cc(C(=O)O)cc(N(C)c3ccccc3F)c2)cc1 [10:24, 3-{4-[(4-Chlorophenyl)(methyl)amino]benzoyl}-5-[(2-fluorophenyl)(methyl)-amino]benzoic acid]  40 nM
5. CCOCCN(c1ccccc1)c1cc(C(=O)O)cc(C(=O)c2ccc(N(C)c3ccc(Cl)cc3)cn2)c1 [9:47, 3-{5-[(4-Chlorophenyl)(methyl)amino]picolinoyl}-5-[(2-ethoxyethyl)(phenyl)-amino]benzoic acid]  60 nM
6. CN(c1ccc(Cl)cc1)c1ccc(C(=O)c2cc(C(=O)O)cc(N(CCCCO)c3ccc4c(c3)OCCO4)c2)nc1 [9:35, 3-{5-[(4-Chlorophenyl)(methyl)amino]picolinoyl}-5-[(3,4-ethylenedioxyphenyl)-(4-hydroxybutyl)amino]benzoic acid]  70 nM
7. COCCN(c1ccccc1)c1cc(C(=O)O)cc(C(=O)c2ccc(N(C)c3ccc(Cl)cc3)cc2)c1 [10:26, 3-{4-[(4-Chlorophenyl)(methyl)amino]benzoyl}-5-[(2-methoxyethyl)(phenyl)-amino]benzoic acid]  74 nM
8. CN(c1ccc(Cl)cc1)c1ccc(C(=O)c2cc(NCc3ccc(Cl)cc3Cl)cc(C(=O)O)c2)cc1 [10:14, 3-{4-[(4-Chlorophenyl)(methyl)amino]benzoyl}-5-(2,4-dichlorobenzylamino)-benzoic acid]  75 nM
9. COCCN(c1cc(C(=O)O)cc(C(=O)c2ccc(N(C)c3ccc(Cl)cc3)cc2)c1)c1ccccc1F [10:25, 3-{4-[(4-Chlorophenyl)(methyl)amino]benzoyl}-5-[(2-fluorophenyl)(2-methoxy-ethyl)amino]benzoic acid]  76 nM
10. CN(c1ccc(Cl)cc1)c1ccc(C(=O)c2cc(Nc3ccccc3)cc(C(=O)O)c2)cc1 [10:8, 3-{4-[(4-Chlorophenyl)(methyl)amino]benzoyl}-5-phenylamino-benzoic acid]  80 nM
11. CN(c1ccc(Cl)cc1)c1ccc(C(=O)c2cc(Nc3ccc4c(c3)OC(F)(F)O4)cc(C(=O)O)c2)cc1 [10:18, 3-{4-[(4-Chlorophenyl)(methyl)amino]benzoyl}-5-[3,4-(difluoromethylene-dioxy)phenylamino]benzoic acid]  105 nM
12. CN(c1ccc(Cl)cc1)c1ccc(C(=O)c2cc(Nc3ccccc3OC(F)F)cc(C(=O)O)c2)cc1 [10:12, 3-{4-[(4-Chlorophenyl)(methyl)amino]benzoyl}-5-(2-difluoromethoxyphenyl-amino)benzoic acid]  110 nM
13. CN(c1ccc(Cl)cc1)c1ccc(C(=O)c2cc(NCc3ccc(Cl)cc3)cc(C(=O)O)c2)cc1 [10:20, 3-(4-Chlorobenzylamino)-5-{4-[(4-chlorophenyl)(methyl)amino]benzoyl}-benzoic acid]  118 nM
14. CN(c1ccc(Cl)cc1)c1ccc(C(=O)c2cc(C(=O)O)cc(N(CCC3OCCO3)c3ccccc3)c2)nc1 [9:46, 3-{[2-(1,3-Dioxolan-2-yl)ethyl](phenyl)amino}-5-{5-[(4-chlorophenyl)(methyl)-amino]picolinoyl}benzoic acid]  122 nM
15. CN(c1ccc(Cl)cc1)c1ccc(C(=O)c2cc(Nc3ccc(C(F)(F)F)cc3Cl)cc(C(=O)O)c2)cc1 [10:11, 3-[2-Chloro-4-(trifluoromethyl)phenylamino]-5-{4-[(4-chlorophenyl)(methyl)-amino]benzoyl}benzoic acid]  125 nM
16. CN(c1ccc(Cl)cc1)c1ccc(C(=O)c2cc(C(=O)O)cc(N(CCCCO)c3cccnc3)c2)nc1 [9:39, 3-{5-[(4-Chlorophenyl)(methyl)amino]picolinoyl}-5-[(4-hydroxybutyl)(3-pyridyl)-amino]benzoic acid]  126 nM
17. CN(c1ccc(Cl)cc1)c1ccc(C(=O)c2cc(C(=O)O)cc(N(CC3(C)COC3)c3ccccc3)c2)cc1 [10:27, 3-{4-[(4-Chlorophenyl)(methyl)amino]benzoyl}-5-{[(3-methyloxetan-3-yl)-methyl](phenyl)amino}benzoic acid]  133 nM
18. CN(c1ccc(Cl)cc1)c1ccc(C(=O)c2cc(NC3CCSCC3)cc(C(=O)O)c2)cc1 [10:21]  143 nM
19. CN(c1ccc(Cl)cc1)c1ccc(C(=O)c2cc(Nc3ccc(C(F)(F)F)cc3)cc(C(=O)O)c2)cc1 [10:17, 3-{4-[(4-Chlorophenyl)(methyl)amino]benzoyl}-5-(4-trifluoromethylphenyl-amino)benzoic acid]  159 nM
20. CN(c1ccc(Cl)cc1)c1ccc(C(=O)c2cc(Nc3ccccc3F)cc(C(=O)O)c2)cc1 [10:9, 3-{4-[(4-Chlorophenyl)(methyl)amino]benzoyl}-5-(2-fluorophenylamino)-benzoic acid]  162 nM
21. CN(c1ccc(Cl)cc1)c1ccc(C(=O)c2cc(C(=O)O)cc(N(CC3CCCO3)c3ccccc3)c2)nc1 (centres unmarked) [9:41, 3-{5-[(4-Chlorophenyl)(methyl)amino]picolinoyl}-5-{phenyl[(2-tetrahydrofuryl)-methyl]amino}benzoic acid]  164 nM
22. CN(c1ccc(Cl)cc1)c1ccc(C(=O)c2cc(Nc3ccccc3OC(F)(F)F)cc(C(=O)O)c2)cc1 [10:4, 3-{4-[(4-Chlorophenyl)(methyl)amino]benzoyl}-5-(2-(trifluoromethoxy)-phenylamino)benzoic acid]  206 nM
23. CN(c1ccc(Cl)cc1)c1ccc(C(=O)c2cc(Nc3cc(F)ccc3F)cc(C(=O)O)c2)cc1 [10:5, 3-{4-[(4-Chlorophenyl)(methyl)amino]benzoyl}-5-(2,5-difluorophenylamino)-benzoic acid]  210 nM
24. CN(c1ccc(Cl)cc1)c1ccc(C(=O)c2cc(C(=O)O)cc(N(C)C3CCOCC3)c2)cc1 [10:22, 3-{4-[(4-Chlorophenyl)(methyl)amino]benzoyl}-5-[methyl(4-tetrahydropyranyl)-amino]benzoic acid]  252 nM
25. Cc1ccccc1CNc1cc(C(=O)O)cc(C(=O)c2ccc(N(C)c3ccc(Cl)cc3)cc2)c1 [10:16, 3-{4-[(4-Chlorophenyl)(methyl)amino]benzoyl}-5-(2-methylbenzylamino)-benzoic acid]  284 nM
26. CN(c1ccc(Cl)cc1)c1ccc(C(=O)c2cc(NCc3ccccc3)cc(C(=O)O)c2)cc1 [10:10, 3-Benzylamino-5-{4-[(4-chlorophenyl)(methyl)amino]benzoyl}benzoic acid]  360 nM
27. COc1ccccc1Nc1cc(C(=O)O)cc(C(=O)c2ccc(N(C)c3ccc(Cl)cc3)cc2)c1 [10:15, 3-{4-[(4-Chlorophenyl)(methyl)amino]benzoyl}-5-(2-methoxyphenylamino)-benzoic acid]  360 nM
28. CN(c1ccc(Cl)cc1)c1ccc(C(=O)c2cc(C(=O)O)cc(N(CCCCO)c3ccccn3)c2)nc1 [9:40, 3-{5-[(4-Chlorophenyl)(methyl)amino]picolinoyl}-5-[(4-hydroxybutyl)(2-pyridyl)-amino]benzoic acid]  362 nM
29. CN(c1ccc(Cl)cc1)c1ccc(C(=O)c2cc(C(=O)O)cc(N(C(=O)CO)c3ccccc3)c2)nc1 [9:38, 3-{5-[(4-Chlorophenyl)(methyl)amino]picolinoyl}-5-(2-hydroxy-N-phenylacet-amido)benzoic acid]  470 nM
30. COc1ccc(Nc2cc(C(=O)O)cc(C(=O)c3ccc(N(C)c4ccc(Cl)cc4)cc3)c2)cc1OC [10:7, 3-{4-[(4-Chlorophenyl)(methyl)amino]benzoyl}-5-(3,4-dimethoxyphenyl-amino)benzoic acid]  483 nM
31. CN(c1ccc(Cl)cc1)c1ccc(C(=O)c2cc(C(=O)O)cc(N3CCCCC3)c2)nc1 [9:37, 3-{5-[(4-Chlorophenyl)(methyl)amino]picolinoyl}-5-(1-piperidinyl)benzoic acid]  506 nM
32. CN(c1ccc(Cl)cc1)c1ccc(C(=O)c2cc(C(=O)O)cc(N3CCOCC3)c2)nc1 [9:36, 3-{5-[(4-Chlorophenyl)(methyl)amino]picolinoyl}-5-(4-morpholinyl)benzoic acid]  1000 nM
33. CN(c1ccc(Cl)cc1)c1ccc(C(=O)c2cc(C(=O)O)cc(N(C)c3cccnc3)c2)nc1 [9:42, 3-{5-[(4-Chlorophenyl)(methyl)amino]picolinoyl}-5-[methyl(3-pyridyl)amino]-benzoic acid]  1550 nM
34. CC(=O)N(c1cc(C(=O)O)cc(C(=O)c2ccc(N(C)c3ccc(Cl)cc3)cn2)c1)C1CCCCC1 [9:43, 3-{5-[(4-Chlorophenyl)(methyl)amino]picolinoyl}-5-(N-cyclohexylacetamido)-benzoic acid]  1820 nM
35. CC(=O)N(c1cc(C(=O)O)cc(C(=O)c2ccc(N(C)c3ccc(Cl)cc3)cn2)c1)C1CCOCC1 [9:44, 3-{5-[(4-Chlorophenyl)(methyl)amino]picolinoyl}-5-[N-(4-tetrahydropyranyl)-acetamido]benzoic acid]  2550 nM
